In the NIST ThermoML archive (doi:10.1021/acs.jced.5b00385):
± gives the expanded uncertainty stated by the source.

Details: Liquid, Vibrating tube method

CCCCC(CC)COC(C)=O (configuration not stated) [2-ethylhexyl acetate]
Details | mass density [kg/m3]
323.16 K, 3000 kPa | 848.36 ± 0.88
323.16 K, 5000 kPa | 850.14 ± 0.88
323.16 K, 10000 kPa | 854.42 ± 0.89
323.16 K, 25000 kPa | 866.13 ± 0.93
323.16 K, 30000 kPa | 869.71 ± 0.94
323.16 K, 40000 kPa | 876.47 ± 0.96
323.17 K, 15000 kPa | 858.49 ± 0.91
323.17 K, 20000 kPa | 862.39 ± 0.92
332.99 K, 100 kPa | 836.98 ± 0.86
333 K, 1000 kPa | 837.85 ± 0.87
333 K, 3000 kPa | 839.78 ± 0.87
333 K, 5000 kPa | 841.66 ± 0.88
333 K, 10000 kPa | 846.16 ± 0.89
333 K, 15000 kPa | 850.47 ± 0.9
333 K, 20000 kPa | 854.55 ± 0.91
333 K, 25000 kPa | 858.45 ± 0.92
333.01 K, 30000 kPa | 862.21 ± 0.93
333.01 K, 40000 kPa | 869.27 ± 0.96
333.01 K, 50000 kPa | 875.85 ± 0.98
333.01 K, 60000 kPa | 882.02 ± 1
333.01 K, 70000 kPa | 888.07 ± 1
333.01 K, 80000 kPa | 893.58 ± 1.1
333.01 K, 90000 kPa | 898.82 ± 1.1
333.01 K, 100000 kPa | 903.81 ± 1.1
342.95 K, 100 kPa | 828.32 ± 0.86
342.96 K, 1000 kPa | 829.27 ± 0.86
342.96 K, 3000 kPa | 831.31 ± 0.86
342.96 K, 5000 kPa | 833.3 ± 0.87
342.96 K, 10000 kPa | 838.06 ± 0.88
342.96 K, 15000 kPa | 842.59 ± 0.89
342.96 K, 20000 kPa | 846.9 ± 0.91
342.97 K, 25000 kPa | 851 ± 0.92
342.97 K, 30000 kPa | 854.91 ± 0.93
342.97 K, 40000 kPa | 862.31 ± 0.96
342.97 K, 50000 kPa | 869.15 ± 0.98
342.97 K, 60000 kPa | 875.57 ± 1
342.97 K, 70000 kPa | 881.64 ± 1
342.97 K, 80000 kPa | 887.28 ± 1.1
342.97 K, 90000 kPa | 892.73 ± 1.1
342.97 K, 100000 kPa | 897.85 ± 1.1
352.78 K, 100 kPa | 819.64 ± 0.85
352.79 K, 1000 kPa | 820.65 ± 0.85
352.79 K, 3000 kPa | 822.83 ± 0.86
352.79 K, 5000 kPa | 824.93 ± 0.86
352.79 K, 10000 kPa | 830 ± 0.87
352.79 K, 15000 kPa | 834.75 ± 0.89
352.79 K, 20000 kPa | 839.27 ± 0.9
352.79 K, 25000 kPa | 843.56 ± 0.91
352.79 K, 30000 kPa | 847.66 ± 0.93
352.79 K, 40000 kPa | 855.34 ± 0.96
352.79 K, 50000 kPa | 862.46 ± 0.98
352.79 K, 60000 kPa | 869.08 ± 1
352.79 K, 70000 kPa | 875.42 ± 1
352.79 K, 90000 kPa | 886.84 ± 1.1
352.79 K, 100000 kPa | 892.14 ± 1.1
352.8 K, 80000 kPa | 881.29 ± 1.1
362.64 K, 100 kPa | 810.91 ± 0.84
362.64 K, 1000 kPa | 811.97 ± 0.84
362.64 K, 3000 kPa | 814.28 ± 0.85
362.64 K, 5000 kPa | 816.51 ± 0.85
362.64 K, 10000 kPa | 821.85 ± 0.87
362.64 K, 15000 kPa | 826.87 ± 0.88
362.64 K, 20000 kPa | 831.61 ± 0.9
362.64 K, 25000 kPa | 836.09 ± 0.91
362.64 K, 30000 kPa | 840.38 ± 0.92
362.64 K, 50000 kPa | 855.78 ± 0.98
362.64 K, 60000 kPa | 862.65 ± 1
362.64 K, 70000 kPa | 869.14 ± 1
362.64 K, 80000 kPa | 875.25 ± 1.1
362.64 K, 90000 kPa | 880.97 ± 1.1
362.64 K, 100000 kPa | 886.45 ± 1.1
362.65 K, 40000 kPa | 848.4 ± 0.95
